From ChEMBL document CHEMBL3992534, “Design, Synthesis, and Biological Evaluation of Novel, Non-Brain-Penetrant, Hybrid Cannabinoid CB1R Inverse Agonist/Inducible Nitric Oxide Synthase (iNOS) Inhibitors for the Treatment of Liver Fibrosis” (J Med Chem, 2017)
Activity calls are given as the source filed them. The calls are words filed in the database; no cut-off is given here.

Key:
Mus musculus [1] = assay: In vivo antagonist activity at CB1R in C57Bl6/J mouse assessed as induction of anxiogenic behavior at 10 mg/kg administered once daily via oral gavage for 28 days by elevated plus maze test; type: functional, organism-based
Mus musculus [2] = assay: Antifibrotic activity in CCl4-induced C57Bl6/J mouse liver fibrosis model assessed as reduction in liver fibrosis at 3 mg/kg administered via oral gavage for 4 weeks by picrosirius red staining based histological analysis; type: functional, organism-based
Mus musculus [3] = assay: Antifibrotic activity in BDL-induced wild-type C57Bl6/J mouse liver damage model assessed as reduction in collagen deposition in liver at 30 mg/kg administered once daily via oral gavage by picrosirius staining based histological analysis; type: functional, organism-based
Mus musculus [4] = assay: Antifibrotic activity in BDL-induced CB1R deficient C57Bl6/J mouse liver damage model assessed as reduction in collagen deposition in liver at 3 mg/kg administered once daily via oral gavage by picrosirius red staining based histological analysis; type: functional, organism-based
Mus musculus [5] = assay: Antifibrotic activity in BDL-induced wild-type C57Bl6/J mouse liver damage model assessed as reduction in liver fibrosis at 3 mg/kg administered once daily via oral gavage starting on day 6 post-BDL induction by picrosirius red staining based histological analysis; type: functional, organism-based
Mus musculus [6] = assay: Antifibrotic activity in CCl4-induced C57Bl6/J mouse liver fibrosis model assessed as reduction in iNOS level at 3 mg/kg administered via oral gavage for 4 weeks by immunostaining based method; type: functional, organism-based
Mus musculus [7] = assay: In vivo antagonist activity at CB1R in C57Bl6/J mouse assessed as reversal of ACEA-induced reduction in upper gastrointestinal motility administered via oral gavage administered 30 mins prior to ACEA addition; type: functional, organism-based
Brain [8] = assay: Drug level in C57Bl6/J mouse brain at 10 mg/kg, po administered via gavage measured after 1 hr by LC-MS/MS analysis; type: ADME, organism-based; details: in vivo
Brain [9] = assay: Drug level in C57Bl6/J mouse brain at 10 mg/kg, po administered via gavage measured after 28 days by LC-MS/MS analysis; type: ADME, organism-based; details: in vivo, 672 h
Liver [10] = assay: Drug uptake in C57Bl6/J mouse liver at 10 mg/kg, po administered via gavage measured after 28 days by LC-MS/MS analysis; type: ADME, organism-based; details: in vivo, 672 h
Liver [11] = assay: Drug uptake in C57Bl6/J mouse liver at 10 mg/kg, po administered via gavage measured after 1 hr by LC-MS/MS analysis; type: ADME, organism-based; details: in vivo
Mus musculus [12] = assay: Antifibrotic activity in CCl4-induced C57Bl6/J mouse liver fibrosis model assessed as reduction in liver fibrosis at 10 mg/kg administered via oral gavage for 4 weeks by picrosirius red staining based histological analysis; type: functional, organism-based
[13] = Ratio of drug level in brain to plasma in C57Bl6/J mouse at 10 mg/kg, po administered via gavage measured after 1 hr by LC-MS/MS analysis; type: ADME, organism-based
[14] = Ratio of drug level in brain to plasma in C57Bl6/J mouse at 10 mg/kg, po administered via gavage measured after 28 days by LC-MS/MS analysis; type: ADME, organism-based; details: brain and plasma, read-out: BPR
Mus musculus [15] = assay: Antiobesity activity in diet-induced obesity C57Bl6/J mouse model assessed as reduction in body weight administered once daily via oral gavage for 2 weeks; type: functional
Mus musculus [16] = assay: Antiobesity activity in diet-induced obesity C57Bl6/J mouse model assessed as reduction in hepatic steatosis by measuring hepatic triglyceride level administered once daily via oral gavage for 2 weeks; type: functional
Mus musculus [17] = assay: Antifibrotic activity in CCl4-induced C57Bl6/J mouse liver fibrosis model assessed as reduction in iNOS level at 10 mg/kg administered via oral gavage for 4 weeks by immunostaining based method; type: functional, organism-based
Mus musculus [18] = assay: Antiobesity activity in diet-induced obesity C57Bl6/J mouse model assessed as reduction in food intake administered once daily via oral gavage for 2 weeks; type: functional
Mus musculus [19] = assay: Antiobesity activity in diet-induced obesity C57Bl6/J mouse model assessed as improvement in glucose tolerance administered once daily via oral gavage for 2 weeks measured at post last dose by ipGTT; type: functional
Salmonella typhimurium [20] = assay: Mutagenicity in Salmonella typhimurium TA98 up to 125 ug/ml by Ames test; type: toxicity; details: salmonella enterica subsp. enterica serovar typhimurium
[21] = Tmax in mouse at 10 mg/kg, po; type: ADME, organism-based; details: in vivo
[22] = Half life in mouse at 10 mg/kg, po; type: ADME, organism-based; details: in vivo
[23] = Tmax in Sprague-Dawley rat at 10 mg/kg, po; type: ADME, organism-based; details: in vivo
[24] = Half life in Sprague-Dawley rat at 10 mg/kg, po; type: ADME, organism-based; details: in vivo
[25] = Oral bioavailability in Sprague-Dawley rat at 10 mg/kg; type: ADME, organism-based; details: in vivo
Mus musculus [26] = assay: Antifibrotic activity in BDL-induced wild-type C57Bl6/J mouse liver damage model assessed as reduction in collagen deposition in liver at 10 mg/kg administered once daily via oral gavage by picrosirius staining based histological analysis; type: functional, organism-based
Mus musculus [27] = assay: Antifibrotic activity in BDL-induced CB1R deficient C57Bl6/J mouse liver damage model assessed as reduction in collagen deposition in liver at 10 mg/kg administered once daily via oral gavage by picrosirius staining based histological analysis; type: functional, organism-based
Mus musculus [28] = assay: Antifibrotic activity in BDL-induced wild-type C57Bl6/J mouse liver damage model assessed as reduction in liver fibrosis at 10 mg/kg administered once daily via oral gavage starting on day 6 post-BDL induction by picrosirius red staining based histological analysis; type: functional, organism-based
Salmonella typhimurium [29] = assay: Mutagenicity in Salmonella typhimurium TA100 up to 125 ug/ml by Ames test; type: toxicity; details: salmonella enterica subsp. enterica serovar typhimurium
[30] = target: T1, Nitric oxide synthase, inducible (Mus musculus) (UniProt P29477); assay: Inhibition of iNOS in mouse RAW264.7 cells assessed as LPS-induced NO production measured after 1 hr by fluorimetric assay; type: cell-based
T1 sequence (whole entry): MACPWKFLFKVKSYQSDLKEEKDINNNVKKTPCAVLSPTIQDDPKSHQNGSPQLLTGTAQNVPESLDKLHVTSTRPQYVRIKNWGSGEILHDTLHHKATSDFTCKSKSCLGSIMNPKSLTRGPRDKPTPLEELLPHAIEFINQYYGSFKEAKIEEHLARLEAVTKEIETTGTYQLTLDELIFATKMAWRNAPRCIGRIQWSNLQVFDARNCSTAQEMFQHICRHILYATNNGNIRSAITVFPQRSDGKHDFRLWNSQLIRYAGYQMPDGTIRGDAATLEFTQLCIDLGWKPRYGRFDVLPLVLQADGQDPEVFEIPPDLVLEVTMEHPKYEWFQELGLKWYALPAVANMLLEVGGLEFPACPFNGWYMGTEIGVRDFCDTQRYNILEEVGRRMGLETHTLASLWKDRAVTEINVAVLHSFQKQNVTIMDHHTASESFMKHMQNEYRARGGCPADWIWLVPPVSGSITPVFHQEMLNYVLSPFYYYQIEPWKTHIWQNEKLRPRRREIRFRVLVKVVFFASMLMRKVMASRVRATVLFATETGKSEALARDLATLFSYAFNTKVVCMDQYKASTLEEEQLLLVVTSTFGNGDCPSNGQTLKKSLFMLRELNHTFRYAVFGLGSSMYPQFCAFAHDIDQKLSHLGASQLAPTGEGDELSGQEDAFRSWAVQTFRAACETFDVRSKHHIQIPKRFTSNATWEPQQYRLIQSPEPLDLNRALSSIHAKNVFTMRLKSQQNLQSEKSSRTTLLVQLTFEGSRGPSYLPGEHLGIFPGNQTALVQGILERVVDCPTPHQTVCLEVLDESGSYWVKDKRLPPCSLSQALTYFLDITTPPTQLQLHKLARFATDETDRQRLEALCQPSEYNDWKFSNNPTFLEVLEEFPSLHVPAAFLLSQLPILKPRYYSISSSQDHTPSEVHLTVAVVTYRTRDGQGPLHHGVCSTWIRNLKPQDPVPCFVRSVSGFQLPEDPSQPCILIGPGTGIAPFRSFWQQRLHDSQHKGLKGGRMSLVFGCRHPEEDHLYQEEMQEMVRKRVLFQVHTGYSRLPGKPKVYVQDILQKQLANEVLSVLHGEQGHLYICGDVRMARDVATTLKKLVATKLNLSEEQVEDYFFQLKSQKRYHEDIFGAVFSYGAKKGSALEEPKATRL

[31] = target: T1, Nitric oxide synthase, inducible (Mus musculus); assay: Inhibition of iNOS in mouse RAW264.7 cells assessed as interferon gamma-induced NO production measured after 1 hr by fluorimetric assay; type: cell-based

With Cc1c(C(=O)NN2CCCCC2)nn(-c2ccc(Cl)cc2Cl)c1-c1ccc(Cl)cc1 the Activity (Mus musculus [1]) was “Active”, the Activity (Mus musculus [2]) was “Active” and the Activity (Mus musculus [3]) was “Active”. For the same compound, the Activity (Mus musculus [4]) was “inactive”, the Activity (Mus musculus [5]) was “inactive” and the Activity (Mus musculus [6]) was “inactive”.
For C/C(N)=N\C(=N/S(=O)(=O)c1ccc(Cl)cc1)N1C[C@H](c2ccccc2)C(c2ccc(Cl)cc2)=N1, the Activity (Mus musculus [7]) was “Dose-dependent effect”, the Drug uptake (Brain [8]) was < 3% and the Drug uptake (Brain [9]) was < 3%. The Drug uptake (Liver [10]) was “Active”, the Drug uptake (Liver [11]) was “Active” and the Activity (Mus musculus [12]) was “Active”. For the same compound, the BPR [13] was 2.7%, the Kp at 672 h [14] was 0.03 and the Activity (Mus musculus [1]) was “inactive”. For the same compound, the Activity (Mus musculus [15]) was “Dose-dependent effect”, the Activity (Mus musculus [16]) was “Dose-dependent effect” and the Activity (Mus musculus [17]) was “Active”. For the same compound, the Activity (Mus musculus [18]) was “Dose-dependent effect”, the Activity (Mus musculus [19]) was “Dose-dependent effect” and the Activity (Salmonella typhimurium [20]) was “Non-Toxic”. It also gave a Tmax [21] of 1 h, a half-life [22] of 2 h and a Tmax [23] of 0.75 h. The half-life [24] was 2 h, the bioavailability [25] was 55% and the Activity (Mus musculus [26]) was “Active”. The Activity (Mus musculus [27]) was “Active”, the Activity (Mus musculus [28]) was “Active” and the Activity (Salmonella typhimurium [29]) was “Non-Toxic”.
In the case of C/C(N)=N\C(=N/S(=O)(=O)c1ccc(Cl)cc1)N1C[C@@H](c2ccccc2)C(c2ccc(Cl)cc2)=N1, the Activity (Mus musculus [12]) is reported as “Active”, the Activity (Mus musculus [17]) is reported as “Active” and the inhibition [30] is reported as “Active”. For the same compound, the inhibition [31] was “Active”.
